Test results published in patent US20170080128A1, “NOVEL ENDOTRACHEAL TUBE FOR THE REDUCTION OF INTUBATION-RELATED COMPLICATION IN NEONATES AND BABIES” (Brigham Young University, priority 2015, published 2017).

System: tracheal mucosal integrity
Assay: Tracheal mucosal integrity of intubated pre-term lambs (histology)
Format: in vivo
Description: FIG. 2 compares histological images of tracheal tissue of a pre-term lamb intubated with an ETT not coated with a CSA-containing coating to tracheal tissue of a pre-term lamb intubated with an ETT coated with a CSA-containing coating.
Pre-term lambs were intubated using ETTs including a coating having CSA-131 and tracheal mucosal integrity of the lambs was compared to the tracheal mucosal integrity of a control group (intubated with uncoated ETTs). […] FIG. 2 illustrates the histological appearance of tracheas of the premature lambs that were intubated for three days. […] An area of denuded epithelium (arrowhead), and accumulation of white blood cells (arrow) are highlighted.

For `CCCCCCCCCCCCNCCC[C@@H](C)[C@H]1CC[C@H]2[C@@H]3[C@H](OCCCN)C[C@@H]4C[C@H](OCCCN)CC[C@]4(C)[C@H]3C[C@H](OCCCN)[C@]12C.Cl.Cl.Cl.Cl` [CSA-131], the “Histological appearance of trachea (FIG. 2, image (b))” value (ETT coated with a CSA-131 containing coating, intubated for three days) was “the epithelium is intact and the subjacent connective tissue region is not inflamed” and the “Tracheal mucosal integrity compared to control group (uncoated ETTs)” value (ETTs including a coating having CSA-131) was “markedly improved mucosal integrity”.
